Data taken from a compilation of properties of binary mixtures (doi:10.1021/acs.jced.9b01018).

Assay: xn = mol fraction of the nth substance listed
Conditions: 100 kPa

CC(=O)[O-].CCCC[n+]1ccn(C)c1 + O
viscosity [mPa·s]
Conditions	278.15 K	283.15 K	293.15 K	298.15 K	303.15 K	313.15 K	323.15 K	333.15 K	343.15 K	353.15 K
x2 = 0.012	2390	1403	562	375	260	136.6	79.4	–	31.37	21.85
x2 = 0.0173	2429	1425	567	380	263	–	78	48.1	31.4	22.07
